pIC50: −log10 of the molar value.
Legend:
[1] = biological target: CYP2C19 (Homo sapiens, UniProt P33261); experiment: in vitro
[2] = biological target: T1, CYP2B6 (Homo sapiens, UniProt P20813); experiment: in vitro
T1 sequence (P20813 1-491): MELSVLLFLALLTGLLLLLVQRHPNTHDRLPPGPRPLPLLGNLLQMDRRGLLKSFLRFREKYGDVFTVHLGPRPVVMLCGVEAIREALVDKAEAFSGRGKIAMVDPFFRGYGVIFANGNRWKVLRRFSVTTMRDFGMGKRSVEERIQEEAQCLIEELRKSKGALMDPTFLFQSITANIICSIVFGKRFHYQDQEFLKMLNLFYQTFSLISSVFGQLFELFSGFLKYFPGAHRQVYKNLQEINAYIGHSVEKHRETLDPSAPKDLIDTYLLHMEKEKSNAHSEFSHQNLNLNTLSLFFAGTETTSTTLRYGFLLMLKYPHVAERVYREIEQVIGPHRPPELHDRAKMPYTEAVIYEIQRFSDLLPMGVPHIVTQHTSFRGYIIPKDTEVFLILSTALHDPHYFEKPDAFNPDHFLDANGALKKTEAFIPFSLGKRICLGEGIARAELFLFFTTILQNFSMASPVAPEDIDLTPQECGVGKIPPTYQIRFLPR

[3] = biological target: CYP2D6 (Homo sapiens, UniProt P10635); experiment: Fluorimetric CYP inhibition assay, CYP2D6-AMMC
[4] = biological target: T2, CYP1A2 (Homo sapiens, UniProt P05177); experiment: in vitro
T2 sequence (P05177 1-516): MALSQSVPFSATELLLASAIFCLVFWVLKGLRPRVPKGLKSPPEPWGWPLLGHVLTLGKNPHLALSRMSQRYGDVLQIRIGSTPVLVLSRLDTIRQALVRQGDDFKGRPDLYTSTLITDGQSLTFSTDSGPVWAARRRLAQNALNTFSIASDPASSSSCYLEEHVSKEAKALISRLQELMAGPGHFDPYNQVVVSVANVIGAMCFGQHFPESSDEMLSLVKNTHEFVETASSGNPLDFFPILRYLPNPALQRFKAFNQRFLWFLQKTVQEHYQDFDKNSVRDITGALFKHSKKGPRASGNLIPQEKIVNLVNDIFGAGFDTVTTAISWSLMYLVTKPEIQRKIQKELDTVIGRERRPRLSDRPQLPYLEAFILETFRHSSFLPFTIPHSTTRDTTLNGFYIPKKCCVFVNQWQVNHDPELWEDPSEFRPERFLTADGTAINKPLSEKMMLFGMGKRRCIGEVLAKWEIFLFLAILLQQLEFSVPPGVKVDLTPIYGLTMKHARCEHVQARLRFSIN

[5] = biological target: T3, CYP2C8 (Homo sapiens, UniProt P10632); experiment: in vitro
T3 sequence (P10632 1-490): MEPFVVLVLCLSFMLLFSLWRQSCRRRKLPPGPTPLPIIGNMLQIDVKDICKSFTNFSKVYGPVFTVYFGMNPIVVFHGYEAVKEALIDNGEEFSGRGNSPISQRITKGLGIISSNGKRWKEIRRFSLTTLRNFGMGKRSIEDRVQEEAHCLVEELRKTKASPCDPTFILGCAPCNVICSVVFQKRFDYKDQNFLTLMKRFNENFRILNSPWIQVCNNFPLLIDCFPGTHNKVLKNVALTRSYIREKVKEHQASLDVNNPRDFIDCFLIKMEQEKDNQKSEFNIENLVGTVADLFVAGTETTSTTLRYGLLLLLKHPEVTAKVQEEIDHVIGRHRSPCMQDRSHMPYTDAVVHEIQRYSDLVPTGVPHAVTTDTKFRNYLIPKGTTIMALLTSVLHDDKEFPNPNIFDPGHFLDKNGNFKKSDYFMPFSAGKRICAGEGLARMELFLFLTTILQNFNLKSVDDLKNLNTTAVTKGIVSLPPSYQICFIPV

[6] = biological target: CYP2C9 (Homo sapiens, UniProt P11712); experiment: Fluorimetric CYP inhibition assay, CYP2C9-MFC
[7] = biological target: T4, CYP3A4 (Homo sapiens, UniProt P08684); experiment: Fluorimetric CYP inhibition assay, CYP3A4 (substrates BFC, BQ, DBF)
[8] = biological target: T4, CYP3A4; experiment: in vitro

Chain of CYP2C19 (P33261 whole entry): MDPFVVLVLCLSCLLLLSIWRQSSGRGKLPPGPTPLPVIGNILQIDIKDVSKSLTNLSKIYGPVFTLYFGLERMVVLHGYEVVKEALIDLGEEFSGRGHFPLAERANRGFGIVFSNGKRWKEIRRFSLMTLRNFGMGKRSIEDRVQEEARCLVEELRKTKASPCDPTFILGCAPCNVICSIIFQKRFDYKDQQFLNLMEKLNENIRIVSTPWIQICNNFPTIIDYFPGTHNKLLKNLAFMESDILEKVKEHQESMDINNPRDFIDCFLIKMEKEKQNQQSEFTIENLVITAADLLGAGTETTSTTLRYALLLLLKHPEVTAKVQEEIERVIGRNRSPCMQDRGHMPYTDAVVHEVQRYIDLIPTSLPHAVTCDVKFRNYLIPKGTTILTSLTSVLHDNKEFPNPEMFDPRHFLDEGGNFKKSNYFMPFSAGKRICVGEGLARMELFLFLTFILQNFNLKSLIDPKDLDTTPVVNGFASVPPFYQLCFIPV
T4 sequence (P08684 whole entry): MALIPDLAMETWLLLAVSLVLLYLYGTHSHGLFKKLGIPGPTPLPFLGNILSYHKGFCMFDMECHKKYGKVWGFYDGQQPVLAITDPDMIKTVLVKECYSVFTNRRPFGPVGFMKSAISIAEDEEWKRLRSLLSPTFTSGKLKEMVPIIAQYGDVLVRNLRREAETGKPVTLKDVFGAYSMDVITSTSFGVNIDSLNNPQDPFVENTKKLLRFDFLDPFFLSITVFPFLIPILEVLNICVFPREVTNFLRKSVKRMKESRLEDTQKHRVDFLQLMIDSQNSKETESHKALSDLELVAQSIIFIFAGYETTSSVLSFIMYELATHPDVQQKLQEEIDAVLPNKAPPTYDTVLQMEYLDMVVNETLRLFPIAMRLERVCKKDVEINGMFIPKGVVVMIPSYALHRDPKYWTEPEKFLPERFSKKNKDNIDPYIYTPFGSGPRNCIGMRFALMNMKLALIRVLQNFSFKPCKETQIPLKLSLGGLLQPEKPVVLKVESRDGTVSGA
Chain of CYP2C9 (P11712 whole entry): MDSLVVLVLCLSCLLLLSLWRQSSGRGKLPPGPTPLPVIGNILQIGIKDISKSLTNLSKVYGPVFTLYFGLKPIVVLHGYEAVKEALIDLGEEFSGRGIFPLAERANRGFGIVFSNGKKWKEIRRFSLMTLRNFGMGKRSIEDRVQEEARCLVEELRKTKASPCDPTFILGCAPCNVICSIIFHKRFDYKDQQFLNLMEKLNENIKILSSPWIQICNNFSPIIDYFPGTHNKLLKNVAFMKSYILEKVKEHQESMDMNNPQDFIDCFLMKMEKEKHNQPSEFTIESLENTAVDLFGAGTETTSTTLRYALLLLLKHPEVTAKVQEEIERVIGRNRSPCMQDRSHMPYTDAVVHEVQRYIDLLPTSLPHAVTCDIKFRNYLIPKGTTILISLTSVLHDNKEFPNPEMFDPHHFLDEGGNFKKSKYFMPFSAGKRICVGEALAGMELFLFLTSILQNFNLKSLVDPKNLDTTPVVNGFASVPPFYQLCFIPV
Chain of CYP2D6 (P10635 whole entry): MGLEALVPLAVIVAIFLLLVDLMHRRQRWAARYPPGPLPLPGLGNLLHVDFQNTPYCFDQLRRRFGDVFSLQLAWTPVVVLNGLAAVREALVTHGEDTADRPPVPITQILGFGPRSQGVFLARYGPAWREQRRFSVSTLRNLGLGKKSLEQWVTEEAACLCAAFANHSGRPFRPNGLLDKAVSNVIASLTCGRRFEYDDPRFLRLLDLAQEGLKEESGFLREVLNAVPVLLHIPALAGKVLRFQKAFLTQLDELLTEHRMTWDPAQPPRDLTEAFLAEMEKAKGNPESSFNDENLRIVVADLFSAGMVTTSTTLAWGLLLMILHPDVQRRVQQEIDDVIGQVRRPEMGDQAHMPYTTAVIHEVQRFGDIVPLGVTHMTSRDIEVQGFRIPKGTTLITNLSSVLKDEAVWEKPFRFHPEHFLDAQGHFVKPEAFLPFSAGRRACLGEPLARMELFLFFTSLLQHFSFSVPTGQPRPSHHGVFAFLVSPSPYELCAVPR

Structure (SMILES): CC(C)(CCCCCCCCCCCCC(C)(C)C(=O)O)C(=O)O [M16αα, 2,2,15,15-tetramethylhexadecane-1,16-dioic acid]
- inhibition at 0.05 μM ([1]; % Inhibition (set 1)): 0%
- inhibition at 0.41 μM ([1]; % Inhibition (set 1)): 0%
- inhibition at 1.23 μM ([1]; % Inhibition (set 1)): 0%
- inhibition at 3.7 μM ([1]; % Inhibition (set 1)): 0%
- inhibition at 11.11 μM ([1]; % Inhibition (set 1)): 3%
- inhibition at 33.33 μM ([1]; % Inhibition (set 1)): 57%
- inhibition at 100 μM ([1]; % Inhibition (set 1)): 63%
- inhibition at 0.05 μM ([1]; % Inhibition (set 2)): 1%
- inhibition at 0.41 μM ([1]; % Inhibition (set 2)): 2%
- inhibition at 1.23 μM ([1]; % Inhibition (set 2)): 4%
- inhibition at 3.7 μM ([1]; % Inhibition (set 2)): 4%
- inhibition at 11.11 μM ([1]; % Inhibition (set 2)): 12%
- inhibition at 33.33 μM ([1]; % Inhibition (set 2)): 43%
- inhibition at 100 μM ([1]; % Inhibition (set 2)): 70%
- inhibition at 0.05 μM ([2]; % Inhibition (set 1)): 0%
- inhibition at 0.41 μM ([2]; % Inhibition (set 1)): 7%
- inhibition at 1.23 μM ([2]; % Inhibition (set 1)): 4%
- inhibition at 3.7 μM ([2]; % Inhibition (set 1)): 29%
- inhibition at 11.11 μM ([2]; % Inhibition (set 1)): 8%
- inhibition at 33.33 μM ([2]; % Inhibition (set 1)): 17%
- inhibition at 100 μM ([2]; % Inhibition (set 1)): 27%
- inhibition at 0.05 μM ([2]; % Inhibition (set 2)): 2%
- inhibition at 0.41 μM ([2]; % Inhibition (set 2)): 0%
- inhibition at 1.23 μM ([2]; % Inhibition (set 2)): 3%
- inhibition at 3.7 μM ([2]; % Inhibition (set 2)): 2%
- inhibition at 11.11 μM ([2]; % Inhibition (set 2)): 8%
- inhibition at 33.33 μM ([2]; % Inhibition (set 2)): 12%
- inhibition at 100 μM ([2]; % Inhibition (set 2)): 28%
- pIC50 [3]: < 4.00
- inhibition at 0.05 μM ([4]; % Inhibition (set 1)): 0%
- inhibition at 0.41 μM ([4]; % Inhibition (set 1)): 6%
- inhibition at 1.23 μM ([4]; % Inhibition (set 1)): 0%
- inhibition at 3.7 μM ([4]; % Inhibition (set 1)): 9%
- inhibition at 11.11 μM ([4]; % Inhibition (set 1)): 5%
- inhibition at 33.33 μM ([4]; % Inhibition (set 1)): 7%
- inhibition at 100 μM ([4]; % Inhibition (set 1)): 8%
- inhibition at 0.05 μM ([4]; % Inhibition (set 2)): 0%
- inhibition at 0.41 μM ([4]; % Inhibition (set 2)): 3%
- inhibition at 1.23 μM ([4]; % Inhibition (set 2)): 1%
- inhibition at 3.7 μM ([4]; % Inhibition (set 2)): 5%
- inhibition at 11.11 μM ([4]; % Inhibition (set 2)): 6%
- inhibition at 33.33 μM ([4]; % Inhibition (set 2)): 4%
- inhibition at 100 μM ([4]; % Inhibition (set 2)): 9%
- inhibition at 0.05 μM ([5]; % Inhibition (set 1)): 0%
- inhibition at 0.41 μM ([5]; % Inhibition (set 1)): 1%
- inhibition at 1.23 μM ([5]; % Inhibition (set 1)): 0%
- inhibition at 3.7 μM ([5]; % Inhibition (set 1)): 4%
- inhibition at 11.11 μM ([5]; % Inhibition (set 1)): 13%
- inhibition at 33.33 μM ([5]; % Inhibition (set 1)): 23%
- inhibition at 100 μM ([5]; % Inhibition (set 1)): 43%
- inhibition at 0.05 μM ([5]; % Inhibition (set 2)): 0%
- inhibition at 0.41 μM ([5]; % Inhibition (set 2)): 0%
- inhibition at 1.23 μM ([5]; % Inhibition (set 2)): 0%
- inhibition at 3.7 μM ([5]; % Inhibition (set 2)): 0%
- inhibition at 11.11 μM ([5]; % Inhibition (set 2)): 0%
- inhibition at 33.33 μM ([5]; % Inhibition (set 2)): 15%
- inhibition at 100 μM ([5]; % Inhibition (set 2)): 38%
- pIC50 [6]: < 4.00
- pIC50 [7]: < 4.00
- inhibition at 0.41 μM ([8]; % Inhibition (set 1)): 3%
- inhibition at 100 μM ([8]; % Inhibition (set 1)): 23%
- inhibition at 1.23 μM ([8]; % Inhibition (set 2)): 0%
- inhibition at 3.7 μM ([8]; % Inhibition (set 2)): 0%
- inhibition at 100 μM ([8]; % Inhibition (set 2)): 19%

Source: patent publication US20100240683A1, “COMBINATION THERAPY, COMPOSITION AND METHODS FOR THE TREATMENT OF CARDIOVASCULAR DISORDERS” (Syndromex Ltd., priority 2007, published 2010)
